Laboratory results reported in ChEMBL document CHEMBL4152332, “Discovery and synthesis of novel magnolol derivatives with potent anticancer activity in non-small cell lung cancer” (Eur J Med Chem, 2018).

Columns and labels:
[1] = tested on: NCI-H1975; test: Cell cycle arrest in human NCI-H1975 cells assessed as accumulation at G2/M phase at 5 uM after 24 hrs by propidium iodide staining-based flow cytometric analysis (reference value: 20.11%); type: functional
[2] = tested on: A549; test: Antiproliferative activity against human A549 cells after 72 hrs by MTT assay; type: functional, cell-based; settings: A549, 72 h
[3] = tested on: NCI-H1975; test: Induction of apoptosis in human NCI-H1975 cells assessed as early apoptotic cells at 10 uM after 48 hrs by annexin V/FITC-propidium iodide staining-based flow cytometric method ( Rvb = 6.09%); type: functional
[4] = tested on: Mus musculus; test: Toxicity in Balb/c mouse xenografted with human NCI-H1975 cells assessed as mouse death at 10 to 100 mg/kg, po qd treated for 18 days and measured every 2 days after compound dosing; type: organism-based; settings: in vivo
[5] = tested on: Mus musculus; test: Toxicity in Balb/c mouse xenografted with human NCI-H1975 cells assessed as change in body weight at 20 mg/kg, iv treated every 2 days for 9 days and measured every 2 days after compound dosing ( Rvb = 2.89%); type: organism-based; settings: in vivo
[6] = tested on: NCI-H1975; test: Antitumor activity against human NCI-H1975 cells xenografted in Balb/c mouse assessed as change in tumor mass at 30 mg/kg, po qd treated for 18 days and measured every 2 days after compound dosing relative to control; type: functional
[7] = tested on: HCC827; test: Potency index, ratio of IC50 for honokiol to IC50 for test compound for antiproliferative activity against human HCC827 cells after 72 hrs by MTT assay; type: functional
[8] = tested on: NCI-H1975; test: Cell cycle arrest in human NCI-H1975 cells assessed as accumulation at G0/G1 phase at 20 uM after 24 hrs by propidium iodide staining-based flow cytometric analysis (reference value: 56.11%); type: functional
[9] = tested on: NCI-H1975; test: Induction of apoptosis in human NCI-H1975 cells assessed as necrotic cells at 20 uM after 48 hrs by annexin V/FITC-propidium iodide staining-based flow cytometric method ( Rvb = 1.01%); type: functional
[10] = tested on: NCI-H1975; test: Induction of apoptosis in human NCI-H1975 cells assessed as viable cells at 5 uM after 48 hrs by annexin V/FITC-propidium iodide staining-based flow cytometric method ( Rvb = 82.5%); type: functional; settings: NCI-H1975, 48 h, read-out: Activity
[11] = tested on: NCI-H1975; test: Induction of apoptosis in human NCI-H1975 cells assessed as necrotic cells at 5 uM after 48 hrs by annexin V/FITC-propidium iodide staining-based flow cytometric method ( Rvb = 1.01%); type: functional
[12] = tested on: NCI-H1975; test: Induction of apoptosis in human NCI-H1975 cells assessed as late apoptotic cells at 20 uM after 48 hrs by annexin V/FITC-propidium iodide staining-based flow cytometric method ( Rvb = 10.4%); type: functional
[13] = tested on: NCI-H460; test: Potency index, ratio of IC50 for honokiol to IC50 for test compound for antiproliferative activity against human H460 cells after 72 hrs by MTT assay; type: functional
[14] = tested on: NCI-H1975; test: Cell cycle arrest in human NCI-H1975 cells assessed as accumulation at S phase at 10 uM after 24 hrs by propidium iodide staining-based flow cytometric analysis (reference value: 22.93%); type: functional
[15] = tested on: NCI-H1975; test: Antitumor activity against human NCI-H1975 cells xenografted in Balb/c mouse assessed as change in tumor mass at 10 mg/kg, iv treated every 2 days for 9 days and measured every 2 days after compound dosing relative to control; type: functional
[16] = tested on: NCI-H358; test: Antiproliferative activity against human NCI-H358 cells after 72 hrs by MTT assay; type: functional, cell-based; settings: NCI-H358, 72 h
[17] = tested on: NCI-H1975; test: Cell cycle arrest in human NCI-H1975 cells assessed as accumulation at G0/G1 phase at 10 uM after 24 hrs by propidium iodide staining-based flow cytometric analysis (reference value: 56.11%); type: functional
[18] = Antiproliferative activity against human SPC-A1 cells after 72 hrs by MTT assay; type: functional, cell-based; settings: SPCA1, 72 h
[19] = tested on: NCI-H1975; test: Induction of apoptosis in human NCI-H1975 cells assessed as decrease in Cdk4 level after 24 hrs by Western blot analysis; type: functional, cell-based
[20] = tested on: NCI-H1975; test: Antitumor activity against human NCI-H1975 cells xenografted in Balb/c mouse assessed as change in tumor mass at 100 mg/kg, po qd treated for 18 days and measured every 2 days after compound dosing relative to control; type: functional
[21] = tested on: NCI-H1975; test: Antiproliferative activity against human NCI-H1975 cells after 72 hrs by MTT assay; type: functional, cell-based; settings: NCI-H1975, 72 h
[22] = tested on: NCI-H1975; test: Cell cycle arrest in human NCI-H1975 cells assessed as reduction in accumulation at S phase after 24 hrs by propidium iodide staining-based flow cytometric analysis; type: functional
[23] = tested on: NCI-H1975; test: Cell cycle arrest in human NCI-H1975 cells assessed as reduction in accumulation at G2/M phase after 24 hrs by propidium iodide staining-based flow cytometric analysis; type: functional
[24] = tested on: Mus musculus; test: Toxicity in Balb/c mouse xenografted with human NCI-H1975 cells assessed as change in body weight at 100 mg/kg, po qd treated for 18 days and measured every 2 days after compound dosing ( Rvb = 2.89%); type: organism-based; settings: in vivo
[25] = tested on: NCI-H460; test: Potency index, ratio of IC50 for magnolol to IC50 for test compound for antiproliferative activity against human H460 cells after 72 hrs by MTT assay; type: functional
[26] = tested on: HUVEC; test: Antimigratory activity against HUVEC after 24 to 48 hrs by phase contrast/fluorescence microscopic analysis; type: functional, cell-based; settings: Homo sapiens
[27] = tested on: NCI-H1975; test: Induction of apoptosis in human NCI-H1975 cells assessed as decrease in Cdk2 level after 24 hrs by Western blot analysis; type: functional, cell-based
[28] = tested on: NCI-H1975; test: Induction of apoptosis in human NCI-H1975 cells assessed as decrease in cyclin E level after 24 hrs by Western blot analysis; type: functional, cell-based
[29] = tested on: HCC827; test: Antiproliferative activity against human HCC827 cells after 72 hrs by MTT assay; type: functional, cell-based; settings: HCC827, 72 h
[30] = tested on: Mus musculus; test: Toxicity in Balb/c mouse implanted with mouse C26 cells assessed as mouse death at 100 mg/kg, po qd treated for 10 days; type: organism-based; settings: in vivo, 240 h
[31] = tested on: NCI-H1975; test: Induction of apoptosis in human NCI-H1975 cells assessed as viable cells at 20 uM after 48 hrs by annexin V/FITC-propidium iodide staining-based flow cytometric method ( Rvb = 82.5%); type: functional; settings: NCI-H1975, 48 h, read-out: Activity
[32] = tested on: NCI-H1975; test: Induction of apoptosis in human NCI-H1975 cells after 48 hrs by annexin V/FITC-propidium iodide staining-based flow cytometric method; type: functional, cell-based
[33] = tested on: Mus musculus; test: Toxicity in Balb/c mouse xenografted with human NCI-H1975 cells assessed as effect on heart morphology at 5 to 20 mg/kg, iv treated every 2 days for 9 days; type: organism-based; settings: in vivo
[34] = tested on: NCI-H1975; test: Induction of apoptosis in human NCI-H1975 cells assessed as decrease in cyclin D1 level after 24 hrs by Western blot analysis; type: functional, cell-based
[35] = tested on: NCI-H1650; test: Antiproliferative activity against human NCI-H1650 cells after 72 hrs by MTT assay; type: functional, cell-based; settings: NCI-H1650, 72 h
[36] = tested on: Mus musculus; test: Toxicity in Balb/c mouse xenografted with human NCI-H1975 cells assessed as effect on lung size at 5 to 20 mg/kg, iv treated every 2 days for 9 days; type: organism-based; settings: in vivo
[37] = tested on: Mus musculus; test: Toxicity in Balb/c mouse xenografted with human NCI-H1975 cells assessed as effect on lung morphology at 5 to 20 mg/kg, iv treated every 2 days for 9 days; type: organism-based; settings: in vivo

Work on `C=CCc1ccc(O)c(-c2cc(CC=C)cc(CN3CCC(N)CC3)c2O)c1` yielded an Activity [1] of 13.41%, an IC50 [2] of 5.48 µM and an Activity [3] of 10.1%. The Activity [4] was “Non-Toxic”, the Activity [5] was 8.23% and the Activity [6] was 59.3%. For the same compound, the “Ratio IC50” value [7] was 4, the Activity [8] was 79.45% and the Activity [9] was 0.35%. It also gave a viability at 5 µM [10] of 66.5%, an Activity [11] of 0.52% and an Activity [12] of 49.1%. For the same compound, the “Ratio IC50” value [13] was 4, the Activity [14] was 18.57% and the Activity [15] was 57.5%. It also gave an IC50 [16] of 7.43 µM, an Activity [17] of 67.09% and an IC50 [18] of 7.89 µM. For the same compound, the Activity [19] was “Dose-dependent effect”, the Activity [20] was 61.2% and the IC50 [21] was 5.61 µM. For the same compound, the Activity [22] was “Dose-dependent effect”, the Activity [23] was “Dose-dependent effect” and the Activity [24] was -5.72%. For the same compound, the “Ratio IC50” value [25] was 8, the Activity [26] was “Dose-dependent effect” and the Activity [27] was “Dose-dependent effect”. The Activity [28] was “Dose-dependent effect”, the IC50 [29] was 5.01 µM and the Activity [30] was “Non-Toxic”. The viability at 20 µM [31] was 3.75%, the Activity [32] was “Dose-dependent effect” and the Activity [33] was “Non-Toxic”. For the same compound, the Activity [34] was “Dose-dependent effect”, the IC50 [35] was 4.81 µM and the Activity [36] was “Non-Toxic”. For the same compound, the Activity [37] was “Non-Toxic”.
